Measured values published in US20080317769A1, “Vaccine Composition Comprising Alpha-Galactosylceramide as an Adjuvant For Intranasal Administration” (priority 2005, published 2008).
Entries after “also recorded” stand apart in the source; their conditions may differ.

Experiments:
live PR8 virus = test: Plaque assay of live PR8 virus in the lung wash after 20 LD50 challenge; assay type: in vivo; conditions: Balb/c mice; 10 μg inactivated PR8 + αGalCer intranasal; three days after 20 LD50 live PR8
Procedure: (§1) To examine the role of αGalCer as an adjuvant of a killed virus, influenza virus A/PR/8/34 (PR8), which was inactivated with formalin, was used as an antigen to examine the anti-virus immune response. Balb/c mice were immunized with indicated amounts (1 μg, 10 μg) of inactivated PR8 alone or together with αGalCer by the intranasal administration twice at two-week intervals. Two weeks after the final immunization, the mice were sacrificed and following experiments were performed.
Immunized mice were infected with 20 LD50 of live PR8 virus and sacrificed three days later to obtain the lung wash. The amounts of live PR8 virus in the lung wash were measured by plaque assay. Particularly, MDCK cells (purchased from ATCC) were cultured in a 6 well plate at the density of 95-100%. The lung wash was 10-fold diluted by using a medium serially, which was added to the plate, followed by infection for one hour. Then, the lung wash was eliminated. An agarose containing medium was added thereto, followed by further culture in a CO2 incubator for 2-3 days. The numbers of plaques formed therein were counted with the naked eye.

CD1d = target: T1, CD1d (Mus musculus, UniProt P11609); test: Systemic IgG and in vivo CTL activity in wild type versus CD1d−/− C57BL/6 mice; conditions: CD1d−/− vs wild type C57BL/6 mice; OVA + αGalCer intranasal three times at one-week intervals
T1 construct: host or cells: antigen presenting cells of living C57BL/6 mice (in vivo)
T1 sequence (P11609 22-336): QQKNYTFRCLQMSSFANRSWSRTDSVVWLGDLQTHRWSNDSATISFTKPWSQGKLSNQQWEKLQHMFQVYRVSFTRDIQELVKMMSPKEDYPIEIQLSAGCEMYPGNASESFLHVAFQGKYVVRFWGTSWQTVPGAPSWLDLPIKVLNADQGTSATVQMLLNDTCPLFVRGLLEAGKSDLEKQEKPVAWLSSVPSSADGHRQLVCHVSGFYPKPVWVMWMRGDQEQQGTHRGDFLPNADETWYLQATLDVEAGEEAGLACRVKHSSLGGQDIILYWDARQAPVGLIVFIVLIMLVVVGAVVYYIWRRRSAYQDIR
T1 sequence (P01887 21-119 partner): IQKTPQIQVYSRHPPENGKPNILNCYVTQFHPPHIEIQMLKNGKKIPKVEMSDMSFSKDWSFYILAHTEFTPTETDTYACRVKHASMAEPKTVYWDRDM
Procedure: To investigate whether the immune responses induced by αGalCer were mediated by CD1d, NKT deficient (resulted from the lack of CD1d) CD1d−/− C57BL/6 mice (Charles River Lab., Orient Co. Ltd., Korea) were used for the experiment (Park et al., J. Exp. Med., 193: 893, 2001). On the first week of the final intranasal administration, systemic IgG level in serum and in vivo CTL activity were measured in both wild type and CD1d−/− C57BL/6 mice by the same manner as described in Example 1 and Example 3.

[1] = test system: OVA-specific antibody responses; test: OVA-specific antibody responses by ELISA after intranasal co-administration of OVA and αGalCer, C57BL/6 mice; assay type: in vivo
Procedure: To investigate the activity of αGalCer as an adjuvant in mucosa, required amount of αGalCer and 100 μg of OVA or 100 μg of OVA alone was diluted with PBS, making 20 μl solution (10 μl/nostril), which was administered to C57BL/6 mice or Balb/c mice (Charles River Laboratories, Orient Co., Ltd., Korea) at 6-8 weeks three times at one-week intervals.
Six to eight-weeks-old […] mice (Charles River Laboratories, Orient Co., Ltd., Korea) were immunized with 100 μg of OVA alone or together with the indicated amounts of αGalCer (0.125, 0.5, 2.0 μg), diluted with PBS and made 20 μl (10 μl/nostril) solution, three times at one-week intervals.
A week after the final immunization, the mice were sacrificed. OVA-specific antibody responses were measured by ELISA. The nasal wash sample was obtained by washing the nasal passage with 100 μl of sterilized PBS (Yamamoto et al., J. Immunol., 161: 4115, 1998), and bronchoalveolar lavage fluid was also obtained by the same manner as described to prepare the lung wash (Chung et al., Immunobiology 206: 408, 2002).
OVA-specific IgG titers in the nasal wash and the lung wash were measured (Chung et al., Immunobiology 206: 408, 2002). To measure IgA, IgG1 and IgG2a titers, two-fold serially diluted samples were used. To determine IgA titer, horseradish-peroxidase-conjugated goat anti-mouse IgA (SIGMA, USA), peroxidase substrate and TMB (SIGMA, USA) were used and 0.5 N—HCL was added thereto to terminate color development. Then, OD450 was measured. To determine IgG, IgG1 and IgG2a titers, alkaline phosphatase-conjugated goat anti-mouse IgG, IgG1 and IgG2a (Southern Biotech, USA) and alkaline phosphatase substrate, p-nitrophenyl phosphate (SIGMA), were used.
To assess the immune bias towards Th1 or Th2 immune responses induced by α-GalCer nasal vaccine adjuvant indirectly, IgG isotypes in serum were determined and the ratios of IgG1 to IgG2a were calculated.

[2] = rodents and apes; cited from earlier work
[3] = test system: P815 tumor cells infected with live PR8 virus; test: 51Cr release assay for CTL activity against PR8-infected P815 target cells; assay type: in vivo; conditions: Balb/c mice; inactivated PR8 with or without αGalCer intranasal; splenocytes, 51Cr-labeled PR8-infected P815 targets, 6 hours
Procedure: as §1
Single cells, separated from the spleen of the sacrificed mice, were cultured with stimulator cells for 5 days. To obtain stimulator cells, single cells were taken from the spleen of a naïve Balb/c mouse, which was irradiated with γ-ray, resulting in the inactivation of the cells. Then, the inactivated cells were infected with a live PR8 virus. After culturing splenocytes with stimulator cell for five days, effector cells were three-fold diluted serially, followed by further culture with ^51Cr-labeled target cells for 6 hours. Then, the amounts of ^51Cr […] in the culture supernatant were measured. The target cells were prepared by infecting P815 tumor cells (purchased from ATCC) with live PR8 virus and labeled with ^51Cr.

EG7 tumor cells = test: EG7 tumor challenge after intranasal immunization with OVA and αGalCer; assay type: in vivo; conditions: C57BL/6 mice, 3×10^6 EG7 cells s.c., day 14
Procedure: To confirm whether αGalCer could be used as a nasal vaccine adjuvant inducing anticancer activity, C57BL/6 mice were immunized with 100 μg of OVA alone or together with αGalCer (0.125, 0.5, 2.0 μg) by the intranasal administration three times at one-week intervals. Two weeks after the final immunization, 3×10^6 EG7 tumor cells were subcutaneously inoculated in the left flank of the immunized mice. On the 14th day of the inoculation, the mice were sacrificed and the palpable tumors were weighed.

Compound: CCCCCCCCCCCCCCCCCCCCCCCCCC(=O)N[C@@H](CO[C@H]1O[C@H](CO)[C@H](O)[C@H](O)[C@H]1O)[C@H](O)[C@H](O)CCCCCCCCCCCCCC [αGalCer, alpha-galactosylceramide]
- plaques of live PR8 virus in the lung wash (live PR8 virus): no plaque was observed
- CTL lytic activity in draining lymph node and systemic lymphoid organs of CD1d−/− mice (CD1d): inhibited
- systemic IgG antibody response in CD1d−/− mice (CD1d): significantly inhibited
- OVA-specific IgA responses in the nasal wash and the lung wash ([1]; 2.0 μg αGalCer + 100 μg OVA intranasal, three times at one-week intervals, vs vehicle alone or OVA alone): significantly higher; also recorded: increased
- OVA-specific Th2 type IgG1 and Th1 type IgG2a levels in serum ([1]; co-administration of αGalCer and OVA intranasal): remarkable increase; also recorded: increased
- OVA-specific IgG in serum ([1]; αGalCer 0.125, 0.5, 2.0 μg + 100 μg OVA intranasal, vs vehicle alone or OVA alone): higher levels
- toxicity [2]: seems not to induce toxicity
- target cell-specific lytic activity [3]: observed only in mice concurrently treated with αGalCer; also recorded: strong lytic activity
- fraction of mice with tumor masses (EG7 tumor cells; 0.125 μg αGalCer + 100 μg OVA intranasal): ⅓
- tumor formation (EG7 tumor cells; 0.5 μg and 2.0 μg αGalCer together with OVA intranasal): completely inhibited
